# Assay results as given in patent publication US20200055871A1, “ACTIVATORS OF THE RETINOIC ACID INDUCIBLE GENE "RIG-I" PATHWAY AND METHODS OF USE THEREOF” (Kineta Immuno-Oncology LLC, priority 2018, published 2020).
# Tests used:
# [1] = system: IRF3 signaling pathway in THP1-Lucia™ ISG cells; assay: THP1-Lucia ISG reporter assay: induction of IRF3-dependent gene expression (secreted luciferase); type: cell-based, human; conditions: Homo sapiens, THP1-Lucia ISG, PMA-differentiated cells, 18 h after stimulation, read-out: fold increase of IRF3-dependent luciferase activity over background, THP1 ISG; for fold induction at 10 µM: 10 μM compound; for fold induction at 20 µM: 20 μM compound (*)
# Experimental: The compounds were evaluated in the THP1-Lucia™ ISG (interferon stimulated genes) reporter assay to determine if the compounds activate the IRF3 signaling pathway. The THP1-Lucia™ cells (InvivoGen) express the secreted luciferase (Lucia) reporter gene under the control of an IRF-inducible promoter. The reporter cell line was developed from human monocytic leukemia THP-1 cells.
# The promoter was comprised of five IFN-stimulated response elements (ISRE) fused to an ISG54 minimal promoter which is unresponsive to NF-kB or AP-1 pathways. […] The IRF3-deficient THP1-Lucia™ ISG IRF3−/−reporter cell line was generated by CRISPR technology from the parent THP1-Lucia™ ISG reporter cell line.
# THP1-Lucia™ ISG cells and IRF3-deficient THP1-Lucia™ ISG IRF3−/−cells were differentiated with PMA (100 ng/ml) and stimulated with compounds at the indicated concentrations (5 to 20 μM), positive control, or not treated (background). Luciferase secretion was quantified using the QUANTI-Luc luciferase assay system (InvivoGen) 18 h after stimulation. Data are shown as fold increase luciferase activity over background in Table 7 and represent the IRF3-dependent ISG54 promoter activity by the THP1-Lucia™ ISG cells in response to compounds. […] The fold increase of compounds (10 μM, *20 μM, **5 μM) induced IRF3 dependent luciferase activity is indicated as follows: “≠” indicates less than 2.4 fold increase; “+” indicates a 2.4-4.9 fold increase; “++” indicates a 5-9.9 fold increase; “+++” indicates a 10-19 fold increase; “++++” indicates a 20-39 fold increase; “+++++” indicates greater than or equal to 40 fold increase.
# [2] = system: murine CT26 colon carcinoma cells; assay: RIG-I dependent CXCL10 secretion by CT26 cells (ELISA); type: cell-based; conditions: supernatant 24 h after stimulation
# Experimental: (§1) The CT26 murine colon carcinoma cell line (ATCC) was used to evaluate the induction of CXCL10 secretion. CXCL10 is an important chemokine in tumor immune biology that recruits tumor-specific T cells to the tumor. To confirm that compound-mediated CXCL10 production was RIG-I specific, RIG-1 deficient CT2-RIG-I−/−cells were generated by Kineta Inc. using CRISPR technology.
# (§2) CT26 cells were seeded at a density of 1×10^4 cells per well on a 96-well tissue culture plate in 100 μL of cell culture and cells were incubated at 37° C. and 5% CO2 for 24 hr. Next, CT26 cells were treated with compounds at the indicated concentrations. CXCL10 was quantified by ELISA from supernatants taken 24 h after compound stimulation by use of the CXCL10 Duo Set ELISA kit (Cat #DY466, R&D, Minneapolis, Minn., USA) according to the manufacturer's instructions.
# (§3) CXCL10 secretion by CT26 cells in response to compounds (in an amount of 5 to 20 μM) of the present disclosure is shown in Table 8. The compound-induced CXCL10 production was RIG-I dependent, since none of the compounds mediated CXCL10 secretion in RIG-I deficient CT26 RIG-I−/−cells (about 0 pg/mL of CXCL10, or below the level of quantitation). The compounds (10 μM, *20 μM, **5 μM) are indicated in the table as follows: “≠” indicates less than 100 pg/mL; “+” indicates 100-199 pg/mL; “++” indicates 200-399 pg/mL; “+++” indicates 400-799 pg/mL; “++++” indicates 800 to 1599 pg/mL; “+++++” indicates greater than or equal to 1600 pg/ml.
# [3] = system: RIG-I deficient CT26 RIG-I−/− cells; assay: CXCL10 secretion by RIG-I deficient CT26 RIG-I−/− cells (ELISA); type: cell-based, murine; conditions: compound 5 to 20 μM, 24 h
# Experimental: as §1, §2, §3
Compound,fold induction at 10 µM [1],"CXCL10 secretion, CT26 ([2]; 10 μM compound)","CXCL10 secretion, CT26 RIG-I−/− [3]","CXCL10 secretion, CT26 ([2]; 20 μM compound (*))",fold induction at 20 µM [1],fold induction at 5 µM ([1]; 5 μM compound (**)),"CXCL10 secretion, CT26 ([2]; 5 μM compound (**))"
"Cc1nc2c(ccc3nc(NC(=O)c4ccc(N(C)C)cc4)sc32)s1 [Example 6, 4-(dimethylamino)-N-{11-methyl-3,10-dithia-5,12-diazatricyclo[7.3.0.0^2,^6]dodeca-1,4,6,8,11-pentaen-4-yl}benzamide]",10 to 19,++ (200-399 pg/mL),−,,,,
"Cc1nc2c(ccc3nc(NC(=O)c4ccc5ccccc5c4)sc32)s1 [Example 23, N-{11-methyl-3,10-dithia-5,12-diazatricyclo[7.3.0.0^2,^6]dodeca-1,4,6,8,11-pentaen-4-yl}naphthalene-2-carboxamide]",5 to 9.9,,−,+++++* (greater than or equal to 1600 pg/ml),,,
"O=C(Nc1nc2ccc3scnc3c2s1)c1cccc(C(F)(F)F)c1 [Example 8, N-{3,10-dithia-5,12-diazatricyclo[7.3.0.0^2,^6]dodeca-1,4,6,8,11-pentaen-4-yl}-3-(trifluoromethyl)benzamide]",,,−,+* (100-199 pg/mL),10 to 19,,
"CSc1nc2c(ccc3nc(NC(=O)c4cc5ccccc5cc4OCCCN4CCOCC4)sc32)s1 [Example 36, N-[11-(methylsulfanyl)-3,10-dithia-5,12-diazatricyclo[7.3.0.0^2,^6]dodeca-1,4,6,8,11-pentaen-4-yl]-3-[3-(morpholin-4-yl)propoxy]naphthalene-2-carboxamide]",5 to 9.9,+++ (400-799 pg/mL),−,,,,
"CSc1nc2c(ccc3nc(NC(=O)c4cc5ccccc5cc4OCCN4CCOCC4)sc32)s1 [Example 35, N-[11-(methylsulfanyl)-3,10-dithia-5,12-diazatricyclo[7.3.0.0^2,^6]dodeca-1,4,6,8,11-pentaen-4-yl]-3-[2-(morpholin-4-yl)ethoxy]naphthalene-2-carboxamide]",5 to 9.9,,−,++* (200-399 pg/mL),,,
"O=C(Nc1nc2ccc3scnc3c2s1)c1ccc2occc2c1 [Example 15, N-{3,10-dithia-5,12-diazatricyclo[7.3.0.0^2,^6]dodeca-1,4,6,8,11-pentaen-4-yl}-1-benzofuran-5-carboxamide]",,++ (200-399 pg/mL),−,,2.4 to 4.9,,
"O=C(Nc1nc2ccc3scnc3c2s1)c1cc2c(cc1OCCN1CCOCC1)OCO2 [Example 40, N-{3,10-dithia-5,12-diazatricyclo[7.3.0.0^2,^6]dodeca-1,4,6,8,11-pentaen-4-yl}-6-[2-(morpholin-4-yl)ethoxy]-2H-1,3-benzodioxole-5-carboxamide]",20 to 39,≠ (less than 100 pg/mL),−,,,,
"CCN(CC)S(=O)(=O)c1ccc(C(=O)Nc2nc3ccc4sc(C)nc4c3s2)cc1 [Example 3, 4-(diethylsulfamoyl)-N-{11-methyl-3,10-dithia-5,12-diazatricyclo[7.3.0.0^2,^6]dodeca-1,4,6,8,11-pentaen-4-yl}benzamide]",,,−,++* (200-399 pg/mL),5 to 9.9,,
"O=C(Nc1nc2ccc3scnc3c2s1)c1cc2ccccc2cc1OCCNCCO [Example 46, N-{3,10-dithia-5,12-diazatricyclo[7.3.0.0^2,^6]dodeca-1,4,6,8,11-pentaen-4-yl}-3-{2-[(2-hydroxyethyl)amino]ethoxy}naphthalene-2-carboxamide]",,+++ (400-799 pg/mL),−,,,2.4 to 4.9,
"O=C(Nc1nc2ccc3scnc3c2s1)c1cc2ccccc2cc1OCCN1CC2(COC2)C1 [Example 34, N-{3,10-dithia-5,12-diazatricyclo[7.3.0.0^2,^6]dodeca-1,4,6,8,11-pentaen-4-yl}-3-(2-{2-oxa-6-azaspiro[3.3]heptan-6-yl}ethoxy)naphthalene-2-carboxamide]",2.4 to 4.9,,−,,,,+++** (400-799 pg/mL)
"COc1cc2ccccc2cc1C(=O)Nc1nc2ccc3scnc3c2s1 [Example 16, N-{3,10-dithia-5,12-diazatricyclo[7.3.0.0^2,^6]dodeca-1,4,6,8,11-pentaen-4-yl}-3-methoxynaphthalene-2-carboxamide]",10 to 19,++ (200-399 pg/mL),−,,,,
"O=C(Nc1nc2ccc3scnc3c2s1)c1cc2ccsc2cc1OCCCCN1CCOCC1 [Example 43, N-{3,10-dithia-5,12-diazatricyclo[7.3.0.0^2,^6]dodeca-1,4,6,8,11-pentaen-4-yl}-6-[4-(morpholin-4-yl)butoxy]-1-benzothiophene-5-carboxamide]",10 to 19,+++ (400-799 pg/mL),−,,,,
"CSc1nc2c(ccc3nc(NC(=O)c4ccc5ccccc5c4)sc32)s1 [Example 19, N-[11-(methylsulfanyl)-3,10-dithia-5,12-diazatricyclo[7.3.0.0^2,^6]dodeca-1,4,6,8,11-pentaen-4-yl]naphthalene-2-carboxamide]",10 to 19,,−,+++* (400-799 pg/mL),,,
"COc1nc2c(ccc3nc(NC(=O)c4cc5ccccc5cc4OCCCN4CCOCC4)sc32)s1 [Example 31, N-{11-methoxy-3,10-dithia-5,12-diazatricyclo[7.3.0.0^2,^6]dodeca-1,4,6,8,11-pentaen-4-yl}-3-[3-(morpholin-4-yl)propoxy]naphthalene-2-carboxamide]",5 to 9.9,++ (200-399 pg/mL),−,,,,
"CCN(CCO)CCOc1cc2ccccc2cc1C(=O)Nc1nc2ccc3scnc3c2s1 [Example 45, N-{3,10-Dithia-5,12-diazatricyclo[7.3.0.0^2,6]dodeca-1,4,6,8,11-pentaen-4-yl}-3-{2-[ethyl(2-hydroxyethyl)amino]ethoxy}naphthalene-2-carboxamide carboxamide]",10 to 19,+++ (400-799 pg/mL),−,,,,
"CCCCCOc1ccc(C(=O)Nc2nc3ccc4sc(C)nc4c3s2)cc1 [Example 5, N-{11-methyl-3,10-dithia-5,12-diazatricyclo[7.3.0.0^2,^6]dodeca-1,4,6,8,11-pentaen-4-yl}-4-(pentyloxy)benzamide]",5 to 9.9,,−,+* (100-199 pg/mL),,,
"Cn1ccc2ccc(C(=O)Nc3nc4ccc5scnc5c4s3)cc21 [Example 20, N-{3,10-dithia-5,12-diazatricyclo[7.3.0.0^2,^6]dodeca-1,4,6,8,11-pentaen-4-yl}-1-methyl-1H-indole-6-carboxamide]",10 to 19,+++ (400-799 pg/mL),−,,,,
